Reference: publication PMC6934184, “Selective DNA-PKcs inhibition extends the therapeutic index of localized radiotherapy and chemotherapy” (The Journal of Clinical Investigation, 2019)

Target: T1, MAP3K14 (NIK) (Homo sapiens, UniProt Q99558)
T1 construct: purchased Thermo Fisher Scientific (Life Technologies) SelectScreen
Experiment: SelectScreen LanthaScreen
Format: binding
Conditions: read-out: % displacement
In short: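 Percent values come from Thermo SelectScreen profiling of NU5455, combining activity and binding assays. CSF1R was run in Z'LYTE format at Km app ATP, and CAMK1 in Adapta format with ATP listed at 10.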

T1 sequence (Q99558 whole entry): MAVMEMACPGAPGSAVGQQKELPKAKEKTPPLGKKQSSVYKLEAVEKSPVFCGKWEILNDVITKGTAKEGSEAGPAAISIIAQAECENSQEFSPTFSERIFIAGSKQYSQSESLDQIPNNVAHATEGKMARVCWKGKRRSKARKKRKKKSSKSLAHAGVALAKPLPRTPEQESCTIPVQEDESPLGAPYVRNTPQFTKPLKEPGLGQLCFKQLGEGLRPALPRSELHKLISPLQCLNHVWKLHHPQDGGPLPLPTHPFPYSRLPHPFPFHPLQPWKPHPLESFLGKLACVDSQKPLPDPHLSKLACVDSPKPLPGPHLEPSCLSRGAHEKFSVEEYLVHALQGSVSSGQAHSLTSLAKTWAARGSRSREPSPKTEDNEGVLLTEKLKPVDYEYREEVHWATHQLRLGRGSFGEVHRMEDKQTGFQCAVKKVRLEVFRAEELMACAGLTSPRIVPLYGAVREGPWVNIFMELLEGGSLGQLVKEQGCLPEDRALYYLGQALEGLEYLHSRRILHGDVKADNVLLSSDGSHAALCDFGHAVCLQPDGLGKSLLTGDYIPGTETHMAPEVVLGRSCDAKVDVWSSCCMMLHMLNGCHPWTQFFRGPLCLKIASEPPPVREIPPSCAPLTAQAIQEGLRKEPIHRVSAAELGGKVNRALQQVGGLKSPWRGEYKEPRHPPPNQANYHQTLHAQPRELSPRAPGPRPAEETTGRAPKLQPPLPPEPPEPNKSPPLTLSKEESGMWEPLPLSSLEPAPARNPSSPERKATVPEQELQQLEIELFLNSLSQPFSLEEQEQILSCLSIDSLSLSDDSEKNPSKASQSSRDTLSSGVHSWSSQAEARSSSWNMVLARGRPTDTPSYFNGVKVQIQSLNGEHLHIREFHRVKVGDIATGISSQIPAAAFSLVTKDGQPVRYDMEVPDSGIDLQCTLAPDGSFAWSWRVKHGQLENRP

Work on `CN(C(=O)CN1CCOCC1)c1ccc2sc3c(-c4cccc5c(=O)cc(N6CC7CCC(C6)O7)oc45)cccc3c2c1` [NU5455] yielded an inhibition at 1 µM of -0.5%.
